PubChem BioAssay (NCI)
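Here, GI50 denotes the concentration required for 50% inhibition of growth. At the TGI there is no net growth.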

Legend:
Assay in all cases: NCI-60 cell line screen, 384-well format
[1] = test system: NCI-H23 lung
[2] = test system: NCI-H522 lung
[3] = test system: MCF7 breast
[4] = test system: HCT-116 colon
[5] = test system: OVCAR-3 ovarian
[6] = test system: SF-268 CNS
[7] = test system: SR leukemia
[8] = test system: HOP-92 NSCLC
[9] = test system: SF-539 CNS
[10] = test system: MDA-MB-468 breast
[11] = test system: NCI/ADR-RES ovarian
[12] = test system: UACC-257 melanoma
[13] = test system: PC-3 prostate
[14] = test system: U251 glioblastoma
[15] = test system: MALME-3M melanoma
[16] = test system: MOLT-4 leukemia
[17] = test system: SK-MEL-5 melanoma
[18] = test system: SN12C renal
[19] = test system: RPMI-8226 leukemia
[20] = test system: SK-MEL-2 melanoma
[21] = test system: K-562 leukemia
[22] = test system: MDA-MB-435 melanoma
[23] = test system: 786-0 renal
[24] = test system: SW-620 colon
[25] = test system: A498 renal
[26] = test system: HS 578T breast
[27] = test system: OVCAR-5 ovarian
[28] = test system: NCI-H460 NSCLC
[29] = test system: UO-31 renal
[30] = test system: SK-OV-3 ovarian
[31] = test system: ACHN renal
[32] = test system: SF-295 CNS
[33] = test system: NCI-H322M lung
[34] = test system: NCI-H226 lung
[35] = test system: LOX IMVI melanoma
[36] = test system: CCRF-CEM leukemia
[37] = test system: HCC-2998 colon
[38] = test system: IGROV1 ovarian
[39] = test system: HOP-62 NSCLC
[40] = test system: RXF 393 renal
[41] = test system: MDA-MB-231 breast
[42] = test system: SNB-75 CNS
[43] = test system: TK-10 renal
[44] = test system: CAKI-1 renal
[45] = test system: BT-549 breast
[46] = test system: HCT-15 colon
[47] = test system: COLO 205 colon
[48] = test system: SK-MEL-28 melanoma
[49] = test system: DU-145 prostate
[50] = test system: HT29 colon
[51] = test system: HL-60(TB) leukemia
[52] = test system: T-47D breast
[53] = test system: M14 melanoma
[54] = test system: UACC-62 melanoma
[55] = test system: OVCAR-4 ovarian
[56] = test system: A549 NSCLC
[57] = test system: KM12 colon
[58] = test system: SNB-19 CNS
[59] = test system: EKVX NSCLC

CCCCc1nc2cc(/C=C/C(=O)NO)ccc2n1CCN(CC)CC
GI50 [1]: 296 nM | TGI [1]: 1440 nM | GI50 [2]: 34.3 nM | TGI [2]: 247 nM | GI50 [3]: 185 nM | TGI [3]: 1130 nM | GI50 [4]: 125 nM | TGI [4]: 377 nM | GI50 [5]: 181 nM | TGI [5]: 974 nM | GI50 [6]: 174 nM | TGI [6]: 602 nM | GI50 [7]: < 10 nM | TGI [7]: 107 nM | GI50 [8]: 176 nM | TGI [8]: 518 nM | GI50 [9]: 415 nM | TGI [9]: 2480 nM | GI50 [10]: 134 nM | TGI [10]: 356 nM | GI50 [11]: 489 nM | TGI [11]: 2330 nM | GI50 [12]: 178 nM | TGI [12]: 561 nM | GI50 [13]: 185 nM | TGI [13]: 689 nM | GI50 [14]: 174 nM | TGI [14]: 503 nM | GI50 [15]: 130 nM | TGI [15]: 402 nM | GI50 [16]: 30.9 nM | TGI [16]: 197 nM | GI50 [17]: 129 nM | TGI [17]: 290 nM | GI50 [18]: 286 nM | TGI [18]: 1290 nM | GI50 [19]: < 10 nM | TGI [19]: 17 nM | GI50 [20]: 169 nM | TGI [20]: 339 nM | GI50 [21]: 17.5 nM | TGI [21]: 205 nM | GI50 [22]: 226 nM | TGI [22]: 616 nM | GI50 [23]: 317 nM | TGI [23]: 2000 nM | GI50 [24]: 166 nM | TGI [24]: 334 nM | GI50 [25]: 298 nM | TGI [25]: 1070 nM | GI50 [26]: 125 nM | TGI [26]: 317 nM | GI50 [27]: 119 nM | TGI [27]: 484 nM | GI50 [28]: 235 nM | TGI [28]: 1320 nM | GI50 [29]: 82.9 nM | TGI [29]: 1520 nM | GI50 [30]: 239 nM | TGI [30]: 911 nM | GI50 [31]: 221 nM | TGI [31]: 955 nM | GI50 [32]: 186 nM | TGI [32]: 397 nM | GI50 [33]: 206 nM | TGI [33]: 1140 nM | GI50 [34]: 697 nM | TGI [34]: 2100 nM | GI50 [35]: 203 nM | TGI [35]: 588 nM | GI50 [36]: 62.3 nM | TGI [36]: 206 nM | GI50 [37]: 106 nM | TGI [37]: 414 nM | GI50 [38]: 119 nM | TGI [38]: 539 nM | GI50 [39]: 250 nM | TGI [39]: 1640 nM | GI50 [40]: < 10 nM | TGI [40]: 237 nM | GI50 [41]: 187 nM | TGI [41]: 613 nM | GI50 [42]: 119 nM | TGI [42]: 1630 nM | GI50 [43]: 258 nM | TGI [43]: 948 nM | GI50 [44]: 206 nM | TGI [44]: 709 nM | GI50 [45]: 230 nM | TGI [45]: 1160 nM | GI50 [46]: 483 nM | TGI [46]: 2110 nM | GI50 [47]: 178 nM | TGI [47]: 419 nM | GI50 [48]: 179 nM | TGI [48]: 465 nM | GI50 [49]: 120 nM | TGI [49]: 375 nM | GI50 [50]: 203 nM | TGI [50]: 809 nM | GI50 [51]: 144 nM | TGI [51]: 280 nM | GI50 [52]: 136 nM | TGI [52]: 310 nM | GI50 [53]: 358 nM | TGI [53]: 1710 nM | GI50 [54]: 83.4 nM | TGI [54]: 235 nM | GI50 [55]: 392 nM | TGI [55]: 1950 nM | GI50 [56]: 321 nM | TGI [56]: 1270 nM | GI50 [57]: 280 nM | TGI [57]: 1420 nM | GI50 [58]: 511 nM | TGI [58]: 1980 nM | GI50 [59]: 649 nM | TGI [59]: 4320 nM
